According to US10624346B2, “Herbicidal composition and method for controlling weeds” (Sumitomo Chemical Company, Limited, priority 2016, dated 2020):

Columns and labels:
Echinochloa crus-galli = test: Greenhouse pot test, post-emergence spray, herbicidal effect (Examples 202, 203); format: in vivo; conditions: sprayed at 2-3 leaf stage, one week
Text: (§1) A plastic pot was filled with a commercially-available culture soil, and thereto inubie (common barnyardgrass; Echinochloa crus-galli) or akinoenokorogusa (giant foxtail; […] When the weeds grew to two to three leaf stage, a spray liquid of the compound X, a spray liquid of dicamba diglycolamine salt, or a spray liquid of the present composition was uniformly sprayed to the whole plants so that the application rate might be a predetermined value. The spray liquid of the present composition was prepared by mixing the spray liquid of the compound X with the spray liquid of dicamba diglycolamine salt. The spray liquid of the compound X was prepared by mixing a predetermined amount of the formulation X with deionized water. […] After applying the spray liquid, the plants were placed in a greenhouse for a week. […] A plastic pot was filled with a commercially-available culture soil, and thereto inubie (common barnyardgrass; Echinochloa crus-galli) or akinoenokorogusa (giant foxtail; […] The spray liquid of the compound X was prepared by mixing a predetermined amount of the formulation X with deionized water. […] After applying the spray liquid, the plants were placed in a greenhouse for a week.

Setaria faberi = test: as above; format: in vivo; conditions: sprayed at 2-3 leaf stage, one week
Text: as §1

[1] = Compound X 5 g/ha alone, scale 0 (no effect) to 100 (completely dead)
[2] = Compound X 10 g/ha alone, scale 0-100
[3] = dicamba salt 50 g/ha alone, scale 0-100
[4] = dicamba salt 500 g/ha alone, scale 0-100

Structure (SMILES) | Herbicidal effect on Echinochloa crus-galli (observed value) (Echinochloa crus-galli; [1]) | Herbicidal effect on Echinochloa crus-galli (observed value) (Echinochloa crus-galli; [2]) | Herbicidal effect on Setaria faberi (observed value) (Setaria faberi; [1]) | Herbicidal effect on Setaria faberi (observed value) (Setaria faberi; [2]) | Herbicidal effect on Echinochloa crus-galli (observed value) (Echinochloa crus-galli; [3]) | Herbicidal effect on Echinochloa crus-galli (observed value) (Echinochloa crus-galli; [4]) | Herbicidal effect on Setaria faberi (observed value) (Setaria faberi; [3]) | Herbicidal effect on Setaria faberi (observed value) (Setaria faberi; [4])
CCOC(=O)COc1ncccc1Oc1cc(-n2c(=O)cc(C(F)(F)F)n(C)c2=O)c(F)cc1Cl [Compound X, ethyl [3-[2-chloro-4-fluoro-5-(1-methyl-6-trifluoromethyl-2,4-dioxo-1,2,3,4-tetrahydropyrimidin-3-yl)phenoxy]-2-pyridyloxy]acetate] | 20 | 35 | 30 | 45 |  |  |  | 
CN(CCCN)CCCN.COc1c(Cl)ccc(Cl)c1C(=O)O [dicamba BAPMA salt, dicamba N,N-bis(3-aminopropyl)methylamine salt] |  |  |  |  | 0 | 5 | 0 | 10
COc1c(Cl)ccc(Cl)c1C(=O)O.NCCOCCO [dicamba diglycolamine salt] |  |  |  |  | 0 | 10 | 0 | 0
